{"source": "patent US20060276407A1", "about": "“Methods of treating hepatitis C virus” (Schering Corporation, priority 2005, published 2006)", "system": "HCV-RNA viral load", "test": "Effect on HCV-RNA viral load, 14 days dosing of HCV positive genotype 1 interferon non responders (Example 3)", "type": "in vivo", "method": "Multiple escalating doses of compound of Formula Ia were administered for 14 days to HCV positive subjects who were genotype 1 Interferon-a (with or without ribavirin) non responders. In a randomized, placebo controlled, third party blind study, multiple doses of 100 mg BID, 200 mg BID, 400 mg BID, 400 mg TID, and 600 mg TID of compound of Formula Ia or placebo in a 3:1 ratio with or without food were evaluated. […]\nSerial HCV-RNA data were evaluated for antiviral activity and for the change from baseline in the serum HCV RNA levels."}
{"smiles": "CC(C)(C)NC(=O)N[C@H](C(=O)N1C[C@H]2[C@@H]([C@H]1C(=O)NC(CC1CCC1)C(=O)C(N)=O)C2(C)C)C(C)(C)C", "note": "(mixture of isomers) [Formula Ia, (1 R, 5S)-N-[3-Amino-1-(Cyclobutylmethyl)-2,3-Dioxopropyl]-3-[2(S)-[[[(1,1-Dimethylethyl)Amino]Carbonyl]Amino]-3,3-Dimethyl-1-Oxobutyl]-6,6-Dimethyl-3-Azabicyclo[3.1.0]Hexan-2(S)-Carboxamide]", "values": [{"measurement": "Viral load (HCV-RNA) reduction from baseline, average minimum reduction", "setting": "400 mg TID, 14 days", "value": 2, "unit": "logs"}, {"measurement": "HCV-RNA following discontinuation of the 14-day treatment", "setting": "all patients", "value": "returned to baseline levels"}]}
